Data from US20230151003A1, “COMPOUNDS AND METHODS OF USE” (Exelixis, Inc., priority 2020, published 2023).
Structures can show the parent of a compound that is named as a salt.

Each compound was assayed against KDR (Homo sapiens, UniProt P35968) (assay: KDR autophosphorylation ELISA in HUVEC cells). Conditions: Table 3 Cellular Activities, VEGF165-stimulated, phospho-KDR ELISA.
KDR, sequence (P35968 20-1356): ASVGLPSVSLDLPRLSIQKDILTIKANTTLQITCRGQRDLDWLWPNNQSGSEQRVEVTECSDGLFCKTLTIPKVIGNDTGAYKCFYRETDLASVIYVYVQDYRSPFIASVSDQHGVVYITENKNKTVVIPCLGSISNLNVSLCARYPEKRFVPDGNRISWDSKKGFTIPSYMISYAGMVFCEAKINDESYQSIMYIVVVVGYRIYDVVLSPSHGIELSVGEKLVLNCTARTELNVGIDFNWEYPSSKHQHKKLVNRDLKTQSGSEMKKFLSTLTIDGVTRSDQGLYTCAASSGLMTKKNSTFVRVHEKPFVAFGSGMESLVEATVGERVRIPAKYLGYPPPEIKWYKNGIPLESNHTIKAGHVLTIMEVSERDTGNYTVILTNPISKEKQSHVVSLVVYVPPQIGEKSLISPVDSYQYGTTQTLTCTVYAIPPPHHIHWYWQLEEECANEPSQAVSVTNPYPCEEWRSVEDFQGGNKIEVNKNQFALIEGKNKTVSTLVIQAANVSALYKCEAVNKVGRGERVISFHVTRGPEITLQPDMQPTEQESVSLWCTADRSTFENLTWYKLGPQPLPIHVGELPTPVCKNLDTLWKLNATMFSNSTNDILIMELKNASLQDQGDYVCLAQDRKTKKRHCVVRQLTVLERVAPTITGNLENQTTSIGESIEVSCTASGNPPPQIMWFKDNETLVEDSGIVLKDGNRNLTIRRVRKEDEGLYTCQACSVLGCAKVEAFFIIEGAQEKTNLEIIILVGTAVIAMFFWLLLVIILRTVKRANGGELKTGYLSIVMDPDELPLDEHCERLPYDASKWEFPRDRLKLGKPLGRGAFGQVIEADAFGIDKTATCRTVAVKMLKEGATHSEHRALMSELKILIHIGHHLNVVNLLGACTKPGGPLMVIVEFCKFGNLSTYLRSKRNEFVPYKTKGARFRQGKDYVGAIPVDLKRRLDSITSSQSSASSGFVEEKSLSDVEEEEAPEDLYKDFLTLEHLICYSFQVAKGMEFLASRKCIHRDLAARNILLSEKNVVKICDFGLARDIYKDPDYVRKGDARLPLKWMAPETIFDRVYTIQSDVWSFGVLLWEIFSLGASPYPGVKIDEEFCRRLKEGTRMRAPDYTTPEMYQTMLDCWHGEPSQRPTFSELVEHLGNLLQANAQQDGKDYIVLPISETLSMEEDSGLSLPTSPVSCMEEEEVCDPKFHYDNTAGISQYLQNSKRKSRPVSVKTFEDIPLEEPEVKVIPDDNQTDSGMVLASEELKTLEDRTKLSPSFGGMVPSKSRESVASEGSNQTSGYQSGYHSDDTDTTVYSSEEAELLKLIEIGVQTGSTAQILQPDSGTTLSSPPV
Type: cell-based
Set-up: endogenous in cells; host or cells: HUVEC (Lonza #C2519A)
Method in brief: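 Serum-starved (24 h) primary HUVEC were pretreated 1 h with compounds (8-point dilution, 0.3% DMSO final), then stimulated 5 min with 100 ng/mL VEGF165. Lysate phospho-KDR quantified by sandwich ELISA against a phospho-KDR standard; IC50 by 4-parameter fit, normalised to stimulated DMSO and unstimulated controls.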
For `COc1cc2nccc(Oc3ccc(NC(=O)c4cnc(C)c(-c5ccco5)c4O)cc3)c2cc1OC` [Compound 258, N-[4-(6,7-Dimethoxyquinolin-4-yl)oxyphenyl]-5-(furan-2-yl)-4-hydroxy-6-methylpyridine-3-carboxamide], the IC50 was no more than 100 nM. In the case of `COCCOc1cc2nccc(Oc3ccc(NC(=O)c4c(C)n(C)c(C)c(-c5ccco5)c4=O)cc3F)c2nc1OC` [Compound 254, N-[3-Fluoro-4-[[6-methoxy-7-(2-methoxyethoxy)-1,5-naphthyridin-4-yl]oxy]phenyl]-5-(furan-2-yl)-1,2,6-trimethyl-4-oxopyridine-3-carboxamide], the IC50 is reported as no more than 100 nM. For `COc1cc2nccc(Oc3ccc(NC(=O)c4c5n(cc(-c6ccco6)c4=O)CCOC5)cc3F)c2nc1OC` [Compound 297, N-[4-[(6,7-Dimethoxy-1,5-naphthyridin-4-yl)oxy]-3-fluorophenyl]-7-(furan-2-yl)-8-oxo-3,4-dihydro-1H-pyrido[2,1-c][1,4]oxazine-9-carboxamide], the IC50 was 300 to 1000 nM. Work on `COc1cc2nccc(Oc3ccc(NC(=O)c4ccc(C)n(-c5cc[n+]([O-])cc5)c4=O)cc3F)c2nc1OC` [Compound 231, N-[4-[(6,7-Dimethoxy-1,5-naphthyridin-4-yl)oxy]-3-fluorophenyl]-6-methyl-1-(1-oxidopyridin-1-ium-4-yl)-2-oxopyridine-3-carboxamide] yielded an IC50 of 100 to 300 nM. Compound `COc1cc2nccc(Oc3ccc(NC(=O)c4nnc(C)c(-c5ccc(F)cn5)c4OC)cc3F)c2nc1OC` [Compound 215, N-[4-[(6,7-Dimethoxy-1,5-naphthyridin-4-yl)oxy]-3-fluorophenyl]-5-(5-fluoropyridin-2-yl)-4-methoxy-6-methylpyridazine-3-carboxamide] has an IC50 of 300 to 1000 nM. With `COc1cc2nccc(Oc3ccc(NC(=O)c4ccc(C)n(-c5cccnc5)c4=O)cc3F)c2nc1OC` [Compound 222, N-[4-[(6,7-Dimethoxy-1,5-naphthyridin-4-yl)oxy]-3-fluorophenyl]-6-methyl-2-oxo-1-pyridin-3-ylpyridine-3-carboxamide] the IC50 was no more than 100 nM. Compound `COc1cc2nccc(Oc3ccc(NC(=O)c4c5n(cc(-c6cc(C)cs6)c4=O)CCOC5)cc3F)c2nc1OC` [Compound 302, N-[4-[(6,7-Dimethoxy-1,5-naphthyridin-4-yl)oxy]-3-fluorophenyl]-7-(4-methylthiophen-2-yl)-8-oxo-3,4-dihydro-1H-pyrido[2,1-c][1,4]oxazine-9-carboxamide] has an IC50 of no more than 100 nM. For `COc1cc2nccc(Oc3ccc(NC(=O)c4c5n(cc(-c6ccc(C)s6)c4=O)CCOC5)cc3F)c2nc1OC` [Compound 304, N-[4-[(6,7-Dimethoxy-1,5-naphthyridin-4-yl)oxy]-3-fluorophenyl]-7-(5-methylthiophen-2-yl)-8-oxo-3,4-dihydro-1H-pyrido[2,1-c][1,4]oxazine-9-carboxamide], the IC50 was 300 to 1000 nM. For `COc1cnc2c(Oc3ccc(NC(=O)c4cn(CCF)c(C)c(-c5cc(C)cs5)c4=O)cc3F)ccnc2c1` [Compound 328, 1-(2-Fluoroethyl)-N-[3-fluoro-4-[(7-methoxy-1,5-naphthyridin-4-yl)oxy]phenyl]-6-methyl-5-(4-methylthiophen-2-yl)-4-oxopyridine-3-carboxamide], the IC50 was 300 to 1000 nM. `COc1cc2nccc(Oc3ccc(NC(=O)c4cccn(-c5ccnc(O)c5)c4=O)cc3F)c2nc1OC` [Compound 248, N-[4-[(6,7-Dimethoxy-1,5-naphthyridin-4-yl)oxy]-3-fluorophenyl]-1-(2-hydroxypyridin-4-yl)-2-oxopyridine-3-carboxamide hydrochloride] gave an IC50 of 300 to 1000 nM. Compound `COc1cc2nccc(Oc3ccc(NC(=O)c4ccc(C)n(-c5ccnc(O)c5)c4=O)cc3F)c2nc1OC` [Compound 232, N-[4-[(6,7-Dimethoxy-1,5-naphthyridin-4-yl)oxy]-3-fluorophenyl]-1-(2-hydroxypyridin-4-yl)-6-methyl-2-oxopyridine-3-carboxamide] has an IC50 of 300 to 1000 nM. For `COc1cc2nccc(Oc3ccc(NC(=O)c4ccc(C)n(-c5cccnn5)c4=O)cc3F)c2nc1OC` [Compound 234, N-[4-[(6,7-Dimethoxy-1,5-naphthyridin-4-yl)oxy]-3-fluorophenyl]-6-methyl-2-oxo-1-pyridazin-3-ylpyridine-3-carboxamide], the IC50 was 100 to 300 nM. For `COc1cc2nccc(Oc3ccc(NC(=O)c4ccc(C)n(-c5ccnc(C)c5)c4=O)cc3F)c2nc1OC` [Compound 230, N-[4-[(6,7-Dimethoxy-1,5-naphthyridin-4-yl)oxy]-3-fluorophenyl]-6-methyl-1-(2-methylpyridin-4-yl)-2-oxopyridine-3-carboxamide], the IC50 was no more than 100 nM. For `COCCOc1cc2nccc(Oc3ccc(NC(=O)c4cnc(C)c(-c5ccco5)c4O)cc3F)c2nc1OC` [Compound 260, N-[3-Fluoro-4-[[6-methoxy-7-(2-methoxyethoxy)-1,5-naphthyridin-4-yl]oxy]phenyl]-5-(furan-2-yl)-4-hydroxy-6-methylpyridine-3-carboxamide], the IC50 was no more than 100 nM. `COc1cc2c(Oc3ccc(NC(=O)c4c(C)ncc(-c5ccccn5)c4O)cc3F)ccnc2cn1` [Compound 223, N-[3-Fluoro-4-[(6-methoxy-1,7-naphthyridin-4-yl)oxy]phenyl]-4-hydroxy-2-methyl-5-pyridin-2-ylpyridine-3-carboxamide] was tested, and the IC50 was no more than 100 nM. `COc1cc2nccc(Oc3ccc(NC(=O)c4cc(C(C)=O)c(C)n(-c5ccco5)c4=O)cc3F)c2nc1OC` [Compound 236, 5-Acetyl-N-[4-[(6,7-dimethoxy-1,5-naphthyridin-4-yl)oxy]-3-fluorophenyl]-1-(furan-2-yl)-6-methyl-2-oxopyridine-3-carboxamide] showed an IC50 of 300 to 1000 nM. Work on `COc1cc2nccc(Oc3ccc(NC(=O)c4c5n(cc(-c6cccs6)c4=O)CCOC5)cc3)c2nc1OC` [Compound 299, N-[4-[(6,7-Dimethoxy-1,5-naphthyridin-4-yl)oxy]phenyl]-8-oxo-7-thiophen-2-yl-3,4-dihydro-1H-pyrido[2,1-c][1,4]oxazine-9-carboxamide] yielded an IC50 of 300 to 1000 nM. `COc1cc2nccc(Oc3ccc(NC(=O)c4cnc(C)c(-c5ccco5)c4O)cc3F)c2cc1OC` [Compound 259, N-[4-(6,7-Dimethoxyquinolin-4-yl)oxy-3-fluorophenyl]-5-(furan-2-yl)-4-hydroxy-6-methylpyridine-3-carboxamide] was tested, and the IC50 was no more than 100 nM. `COc1cc2nccc(Oc3ccc(NC(=O)c4ncc(C)n(-c5ccc(F)cn5)c4=O)cc3F)c2nc1OC` [Compound 219, N-[4-[(6,7-Dimethoxy-1,5-naphthyridin-4-yl)oxy]-3-fluorophenyl]-4-(5-fluoropyridin-2-yl)-5-methyl-3-oxopyrazine-2-carboxamide] was tested, and the IC50 was no more than 100 nM. `COc1cc2nccc(Oc3ccc(NC(=O)c4c(C)ncc(-c5ncc(F)cc5C)c4O)cc3F)c2nc1OC` [Compound 200, N-[4-[(6,7-Dimethoxy-1,5-naphthyridin-4-yl)oxy]-3-fluorophenyl]-5-(5-fluoro-3-methylpyridin-2-yl)-4-hydroxy-2-methylpyridine-3-carboxamide] showed an IC50 of no more than 100 nM. `COc1cnc2c(Oc3ccc(NC(=O)c4cc(C(C)=O)c(C)n(-c5ccco5)c4=O)cc3F)ccnc2c1` [Compound 238, 5-Acetyl-N-[3-fluoro-4-[(7-methoxy-1,5-naphthyridin-4-yl)oxy]phenyl]-1-(furan-2-yl)-6-methyl-2-oxopyridine-3-carboxamide] showed an IC50 of 300 to 1000 nM.
